The record followed here is patent US20020006915A1, “Use of COX-2 inhibitors to treat sepsis, complications thereof, and EP receptor modulation” (priority 2000, published 2002).

Structures are written as SMILES. “Also recorded” adds a separate entry of the source. Marks after values point to notes of the source that are not given here.

Series [1] can be described thus: Body weight and splenocyte counts 7 days after trauma (NS-398 twice a day over 7 days). It counts as in vivo, BALB/c mice. To be noted: for Body Wt.: day 7. How it is done: (§1) Animals, Experimental Protocol, NS-398 preparation were as described in Example I. Macrophages were prepared as described initially under “Macrophage Preparation ” in Example I. After lysis of erythrocytes with ammonium chloride solution and centrifugation as described in Example I, macrophages were further prepared by resuspending the pellet in RPMI-1640 (Gibco BRL, Life Technologies Inc) containing 2 mmol/L L-glutamine, 100 U/mL penicillin, 100 μg/mL streptomycin, 0.25 μg/mL amphotericin B, and 10% heat-inactivated fetal calf serum (Gibco BRL, Life Technologies Inc), counted via hemocytometer and diluted to a final concentration of 5×10^6 cells/mL, and plated in 96 well plates in a volume of 0.2 mL per well. After allowing macrophages to adhere for 2 hours, the remaining cells were suctioned off and the macrophages were cultured in the +/−1 ng LPS 055:B5 (Sigma, St. Louis, Mo.) per mL at 37° C. in 5% carbon dioxide incubators. Supernatants were harvested at 24 hours and stored at −70° C. until analysis for batch enzyme-linked immunosorbent assay processing to determine prostaglandin and cytokine production.
Body weight and splenocyte recovery after injury±NS-398 were recorded.
(§2) BALB/C mice (n=8/group) were given 10mg/kg NS398 intraperitoneally BID for 7 days, starting immediately after sham injury or trauma (femur fracture+40% hemorrhage). Four groups, sham+placebo (C); sham+NS398 (CN); trauma+placebo (T); or trauma+NS398 (TN) were studied. On day 7 after trauma, mice were sacrificed and splenic macrophages evaluated for PGE2, TNF-α and NO production (via Student's t-test). In a separate study, mice (n=10-11/group) were traumatized and given NS398 for 7 days. On day 7, cecal ligation and puncture was performed, and mice evaluated for survival over 3 weeks (via Log-rank test).

Series [2] relates to LPS stimulated splenic macrophages. The series is described as follows: Mediator production (PGE2, LTB4, TNF-α, NO, IL-6) by LPS stimulated splenic macrophages 7 days after trauma, NS-398 twice a day over 7 days. It counts as in vivo, BALB/c mice. To be noted: for NO: mean ± SEM. How it is done: as §1
NO was measured indirectly by NO2^− concentration using the Greiss reagent system (Promega, Madison, Wis). Protein was quantified using the BCA protein reagent (Pierce, Rockford, Ill.) and all measurements were normalized to protein content per well.
as §2

For a further series, the system named is COX-2 mRNA. The series is described as follows: COX-2 mRNA in splenic macrophages by RT-PCR (NS-398 over 7 days). It counts as in vivo, BALB/c mice. To be noted: trauma + NS-398 over 7 days. The procedure:
Isolated splenic macrophages were treated with LPS (10 ng/mL) for 6 hours. Extraction of mRNA was done with an RNA extraction kit (Qiagen, Inc.).

A further series deals with NF-κB. Kind of series: Electrophoretic mobility shift assay of nuclear NF-κB in splenic macrophages. The series is classed as in vivo, BALB/c mice. Particulars: NS-398 treatment after trauma, over 7 days. How it is done:
NF-κB gel shift oligonucleotide 5′ AGTTGAGGGGACTTTCCCAGGC 3′ (Santa Cruz Laboratories, Santa Cruz, Calif.) was end labeled with (^32P)γATP using polynucleotide kinase T4 (Gibco BRL, Grand Island, N.Y.). End labeled probe was purified from unincorporated (^32P)-γATP using a purification column (Bio-Rad Laboratories) and recovered in tris-EDTA buffer. Samples consisted of adherent macrophages collected after 45 minutes stimulation with 10 ng/mL LPS. Adherent cells were scraped into 1 mL of cold HANKS balanced salt solution. The cell suspension was pelleted after centrifugation in a microcentrifuge for 10 seconds and resuspended in 400 μl cold Buffer A (10 mM HEPES-KOH pH 7.9 at 4° C., 1.5 mM MgCl2, 10 mM KCl, 0.5 mM dithiothreitol, 0.2 mM PMSF) by agitation of the tube. The cells were allowed to swell on ice for 10 minutes, and then vortexed for 10 seconds. Samples were centrifuged for 10 seconds and the supernatant fraction was saved at −70° C. for IκB analysis. The pellet was resuspended in 20-100 μl of cold buffer C (20 mM HEPES-KOH pH 7.9, 25% glycerol, 420 mM NaCl, 1.5 mM MgCl2. 0.2 mM EDTA, 0.5 mM dithiothreitol 0.2 mM PMSF) and incubated on ice for 20 minutes. […] Samples were subjected to electrophoretic separation on a non denaturing 5% poly-acrylamide gel at 30 mA using Tris borate EDTA for 45 minutes and analyzed by exposure to radiographic film (Kodak, Rochester, N.Y.).
Background: A gel shift assay detects complexes by their altered migration in electrophoresis.

The test system of series [3] is BALB/c mice subjected to cecal ligation and puncture. Kind of series: Survival after cecal ligation and puncture 7 days after trauma, NS-398 twice a day over 7 days. It counts as in vivo.
From the text: All cytokine results are reported as mean±SEM of 8 mice per group. The ANOVA was used to determine the significance of the differences between means of traumatized±treatment versus control±treatment groups. A P value of <0.05 was considered significant. For survival studies, Kaplan-Meier (Log-rank) statistical analysis was used to compare all four groups studied. A P value of <0.05 was considered significant.
To evaluate the biological relevance of NS-398, mice were randomized into the four treatment groups. After 7 days, all mice were subjected to cecal ligation and puncture (CLP) and followed for survival over 10 days, when remaining mice were euthanized. […] Only 9% of control mice survived after 200 hours compared to a significant increase in survival of trauma+NS-398 treated mice in which 45% survived.
as §2

For another series, the system named is EP4 receptor. Kind of series: EP4 receptor expression in LPS stimulated human PBMC's via RT-PCR. It counts as cell-based. To be noted: PBMC's after injury, co-incubation with NS-398. The procedure: Serial dilutions were made to co-culture cells with a final concentration of […] NS-398 in a 0.1% DMSO. Control and trauma groups were co-cultured with 0.1% DMSO vehicle for comparisons with NS-398 treated groups.

For a further series, the system named is COX-2. The series is classed as cell-based, human.
The mark [4] stands for this setting: C + NS398, 10 mg/kg i.p. BID for 7 days.
Where [5] appears, read: T + NS398, 10 mg/kg i.p. BID for 7 days.
Setting [6] is: injured mice + NS-398 over 7 days vs untreated injured, P<0.05.

As to `CS(=O)(=O)Nc1ccc([N+](=O)[O-])cc1OC1CCCCC1` [NS-398, N-(2-cyclohexyloxy-4-nitrophenyl)methanesulfonamide], the “Body Wt.” value in series [1] (Control + NS-398, twice a day over 7 days) is on record as 18.3 ± 0.3 g; in series [1] (Trauma + NS-398, twice a day over 7 days), 16.7 ± 0.7 g. Further, the “difference in body weight” value in series [1] (control versus trauma+NS-398 mice, 7 days after trauma) was “no significant difference”. Also, the TNF-α in series [2] (setting [4]) and in series [2] (setting [5]) was 2.6 ± 0.3 pg/μg protein throughout. Moreover, the NO is given as 54.8 ± 2.1 nmol/μg protein in series [2] (setting [4]) and 48.0 ± 3.3 nmol/μg protein in series [2] (setting [5]). For the same molecule, in series [2] (NS-398 given after injury, over 7 days), the “LTB4 levels (in words)” value is “did not restore LTB4 levels to those seen in control”. In addition, the PGE2 production in series [2] (injured mice + NS398 (TN), 10 mg/kg i.p. BID for 7 days) was determined as 3.1±0.4 pg/μg protein. The “IL-6 production (in words)” value in series [2] (setting [6]) is reported as “significantly attenuated production”. For the same molecule, the “NO production (in words)” value in series [2] (setting [6]) is “significantly attenuated production”. In addition, the “TNF-α production (in words)” value in series [2] (setting [6]) is “significantly attenuated production”. Besides, the “PGE2 production by splenocytes/macrophages (in words)” value in series [2] (traumatized mice + NS-398 over 7 days, P<0.05) is recorded as “produce significantly less PGE2”. The “COX-2 mRNA levels” value with COX-2 mRNA is given as “decreased this induction”. Moreover, in the series with NF-κB, the NF-κB activation result is “a decrease in NF-κB activation”. The survival in series [3] (C + NS398, 10 mg/kg i.p. BID for 7 days, CLP on day 7) is given as 0%; in series [3] (T + NS398, 10 mg/kg i.p. BID for 7 days, CLP on day 7) it was 45%*; in series [3] (trauma+NS-398 treated mice, after 200 hours after CLP), 45%. Further, the “survival (in words)” value in series [3] (control+NS-398 mice after CLP) is listed as “died shortly after CLP”. The EP4 receptor expression result in the series on EP4 receptor is “reversed; also recorded: restored”. Moreover, in the series with COX-2, the COX-2 expression entry was “reduced COX-2 expression to levels similar to that expressed by control cells”.
